From article PMC7698453, “4-Benzyloxylonchocarpin and Muracatanes A-C from Ranunculus muricatus L. and Their Biological Effects” (Biomolecules, 2020) come the findings set out here.

Structures can show the parent of a compound that is named as a salt. Where two headings read alike, the source gives them in different places. Where only a bound is given, the exact number is not on record here.

In series [1] the target is T1, BChE (from equine serum) (Equus caballus, UniProt P81908).
T1 construct: BChE (from equine serum); purchased Merck (Darmstadt, Germany); host or cells: equine serum
T1 sequence (P81908 whole entry): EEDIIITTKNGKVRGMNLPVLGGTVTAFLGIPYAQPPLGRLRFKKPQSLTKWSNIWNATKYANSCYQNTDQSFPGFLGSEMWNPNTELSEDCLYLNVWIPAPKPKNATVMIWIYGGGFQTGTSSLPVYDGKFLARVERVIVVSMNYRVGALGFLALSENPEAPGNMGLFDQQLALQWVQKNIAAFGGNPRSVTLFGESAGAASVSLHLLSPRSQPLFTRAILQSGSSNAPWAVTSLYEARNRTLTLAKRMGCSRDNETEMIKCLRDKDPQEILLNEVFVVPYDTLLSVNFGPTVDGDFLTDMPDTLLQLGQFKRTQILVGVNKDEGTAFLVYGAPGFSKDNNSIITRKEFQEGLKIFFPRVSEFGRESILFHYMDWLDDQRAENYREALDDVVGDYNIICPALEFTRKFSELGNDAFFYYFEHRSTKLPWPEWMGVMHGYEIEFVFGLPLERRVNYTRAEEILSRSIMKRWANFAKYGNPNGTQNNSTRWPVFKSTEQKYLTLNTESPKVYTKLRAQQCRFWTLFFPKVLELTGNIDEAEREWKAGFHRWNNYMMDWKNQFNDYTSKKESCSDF
Briefly: Cholinesterase assay (Ellman's method), BChE. The note with it: for inhibition at 10 µM: read-out: BChE % Inhibition. It counts as biochemical. Here is the method: (§1) A solution of tris(hydroxymethyl)-aminomethane (606 mg) in twice-distilled water (100 mL) was adjusted to a pH of 8.0 ± 0.1 with HCl to get a 50 mM Tris-HCl buffer solution. The AChE solution holding 2.005 U/mL was prepared by dissolving the enzyme (271 U/mg, 0.037 mg) in freshly prepared buffer pH 8.0 (5 mL) comprising extra NaN3 (0.98 mg), and for the BChE solution with the concentration of 2.040 U/mL: the enzyme (7.54 U/mg, 1.353 mg) was dissolved in freshly prepared buffer pH 8.0 (5 mL) comprising NaN3 (0.98 mg). The DTNB solution with the concentration of 3 mM was prepared by dissolving DTNB (23.8 mg) in buffer pH 8.0 (20 mL) and this was followed by the addition of MgCl2 (38.0 mg) and NaCl (116.8 mg). The ATChI solution with the concentration of 15 mM was prepared by dissolving ATChI (43.4 mg) in twice-distilled water (10 mL). Furthermore, all solutions were stored in Eppendorf tubes in the refrigerator or freezer. […] The final concentrations for the enzymatic assays were obtained by diluting the stock solution with twice-distilled water.
(§2) A mixture of the tested natural product solutions (25 µL, 3 different concentrations and one blank), DTNB solution (125 μL) and enzyme solution (25 μL, AChE or BChE) was incubated at 30 °C for 20 min in 96-well microplates followed by the addition of the substrate (25 μL, at 4 different concentrations). The final substrate concentrations were as follows: [ATChI] = 0.9375 mM, 0.625 mM, […], and 0.1875 mM. Moreover, the absorbance (λ = 415 nm) was measured at 30 °C for 30 min at 1 min intervals. […] Ki and Ki’ were deduced from Lineweaver–Burk, Dixon, and Cornish–Bowden plots as well as the mode of inhibtion. The relative inhibition was deduced as the quotient of the slopes (compound divided by blank) of the linear ranges. The concentration of each compound was 10 µM while the concentration was ATChI = 0.625 mM.
(Ellman's reagent forms a yellow product with free thiols.)

A short description of series [2]: Sulforhodamine B cytotoxicity assay, HT29. It counts as cell-based. As to conditions: human, HT29 colorectal adenocarcinoma cells; SRB assay, tested 1-30 µM. The procedure: (§3) The cytotoxicity of the natural products was screened by using the sulforhodamine-B (Kiton Red S, ABCR, Karlsruhe, Germany) in micro culture colorimetric assay using 96-well plates with the seeding of the cells on day 0 applying appropriate cell densities to prevent confluence of the cells during the period of the experiment. On day 1, the cells were treated with six different concentrations (1, 3, 7, 12, 20 and 30 µM); thereby, the final concentration of DMSO was always ≤ 0.5%, generally regarded as non-toxic to the cells. On day 4, the supernatant medium was discarded; the cells were fixed with 10 % trichloroacetic acid. After another day at 4 °C, the cells were washed in a strip washer and dyed with the SRB solution (100 µL, 0.4% in 1% acetic acid) for about 20 min and this was followed by washing of the plates (four times, 1% acetic acid) and air-drying overnight. Furthermore, tris base solution (200 µL, 10 mM) was added to each well and absorbance was measured at λ = 570 nm employing a reader (96 wells, Tecan Spectra, Crailsheim, Germany).
(In SRB staining, fixed cells bind dye roughly in proportion to their protein.)

Series [3] deals with T2, α-Glucosidase type I (EC 3.2.1.20 from Saccharomyces cerevisiae) (Saccharomyces cerevisiae, UniProt P53341).
T2 construct: purchased Sigma-Aldrich (St. Louis, MO, USA)
T2 sequence (P53341 whole entry): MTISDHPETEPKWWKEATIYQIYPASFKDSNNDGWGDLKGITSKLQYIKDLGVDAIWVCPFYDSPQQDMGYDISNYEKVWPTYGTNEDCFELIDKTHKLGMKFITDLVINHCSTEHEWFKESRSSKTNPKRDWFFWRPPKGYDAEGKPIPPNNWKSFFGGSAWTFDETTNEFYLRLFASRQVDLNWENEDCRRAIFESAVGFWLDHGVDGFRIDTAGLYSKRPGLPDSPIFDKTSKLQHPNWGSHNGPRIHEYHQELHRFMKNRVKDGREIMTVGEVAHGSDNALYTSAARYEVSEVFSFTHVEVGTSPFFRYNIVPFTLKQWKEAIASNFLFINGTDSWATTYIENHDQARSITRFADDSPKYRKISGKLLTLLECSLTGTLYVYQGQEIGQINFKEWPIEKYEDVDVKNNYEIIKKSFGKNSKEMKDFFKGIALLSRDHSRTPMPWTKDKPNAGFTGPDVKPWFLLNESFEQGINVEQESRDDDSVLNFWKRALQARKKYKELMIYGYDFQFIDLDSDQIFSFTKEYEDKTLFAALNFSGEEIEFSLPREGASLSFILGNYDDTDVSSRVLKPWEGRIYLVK
Briefly: α-Glucosidase assay (p-NPG substrate). The note with it: for inhibition at 10 µM: at concentration of 10 µM. It counts as biochemical. Here is the method:
The α-glucosidase assay was applied to pure natural product 3 according to the protocol described by Schmidt and co-workers. In short, the assays were performed in 96-well microplates using a Multiskan FC microplate photometer (Thermo Fisher Scientific, Waltham, MA, USA) controlled by SkanIt 2.5.1 software (Thermo Fisher Scientific, Waltham, MA, USA) with final volumes of 200 µL in each well. A phosphate buffer (100 mM) was prepared by dissolving 2.65 g sodium dihydrogen phosphate dihydrate, 4.70 g disodium hydrogen phosphate, and 0.10 g sodium azide in 500 mL Milli-Q water and adjusting the pH to 7.5. […] The microplate was shaken for 2 min, and incubated for 10 min at 28 °C. Then, 20 µL of p-NPG substrate (10 mM, 60.2 mg in 20 mL buffer) was added to each well to initiate the reaction. The enzyme activity (expressed as cleavage rate ΔAU/s) was determined by measuring the absorbance at 405 nm every 30 s for 35 min, and percentage inhibition was calculated according to the equation: Percent inhibition=Slope(blank)−Slope(sample)/Slope(blank)× 100% where slopeblank is the enzyme activity of the wells containing buffer, enzyme, and substrate and slopesample is the enzyme activity in the wells containing buffer, enzyme, substrate, and sample.

A short description of series [4]: Sulforhodamine B cytotoxicity assay, FaDu. The series is classed as cell-based. As to conditions: human, FaDu pharynx carcinoma cells; SRB assay, tested 1-30 µM. The procedure:
as §3

Series [5] in a line: Sulforhodamine B cytotoxicity assay, SW1736. It counts as cell-based. The note with it: human, SW1736 thyroid carcinoma cells; SRB assay, tested 1-30 µM. Here is the method:
as §3

Series [6] in a line: Sulforhodamine B cytotoxicity assay, A2780. It counts as cell-based. As to conditions: human, A2780 ovarian carcinoma cells; SRB assay, tested 1-30 µM. Here is the method: as §3
Series [7] is described as follows: Sulforhodamine B cytotoxicity assay, MCF7. The note with it: human, MCF7 breast cancer cells; SRB assay, tested 1-30 µM. It counts as cell-based. Here is the method: as §3
In series [8] the target is T3, AChE (from Electrophorus electricus) (Electrophorus electricus, UniProt O42275).
T3 construct: purchased Merck (Darmstadt, Germany)
T3 sequence (O42275 24-633): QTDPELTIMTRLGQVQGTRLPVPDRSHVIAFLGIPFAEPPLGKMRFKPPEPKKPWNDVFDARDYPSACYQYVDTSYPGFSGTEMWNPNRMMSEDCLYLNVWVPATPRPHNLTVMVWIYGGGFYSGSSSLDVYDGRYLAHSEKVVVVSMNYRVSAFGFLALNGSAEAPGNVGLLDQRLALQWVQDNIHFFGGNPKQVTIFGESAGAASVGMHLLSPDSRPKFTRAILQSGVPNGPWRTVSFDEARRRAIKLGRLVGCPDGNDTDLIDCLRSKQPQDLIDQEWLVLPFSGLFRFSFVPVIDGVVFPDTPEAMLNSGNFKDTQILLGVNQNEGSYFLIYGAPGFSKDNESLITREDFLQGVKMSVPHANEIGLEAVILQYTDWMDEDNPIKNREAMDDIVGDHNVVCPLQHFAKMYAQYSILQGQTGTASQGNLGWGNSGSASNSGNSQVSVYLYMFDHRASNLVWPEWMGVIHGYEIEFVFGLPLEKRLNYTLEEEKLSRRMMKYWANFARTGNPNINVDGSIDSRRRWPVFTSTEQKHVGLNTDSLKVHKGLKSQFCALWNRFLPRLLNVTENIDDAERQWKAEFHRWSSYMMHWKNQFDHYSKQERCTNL
Put plainly: biochemical. The series is classed as biochemical. As to conditions: for inhibition at 10 µM: at concentration of 10 µM, ATChI 0.625 mM. The procedure:
as §1, §2

Setting [9] is: Ki' (mixed-mode inhibition), from Lineweaver–Burk, Dixon and Cornish–Bowden plots.

Broadly, the inhibition is the relative decrease from the control value, in per cent. For `COc1ccc2c3c1O[C@H]1C[C@@H](O)C=C[C@@]31CCN(C)C2` [GH, Galantamine hydrobromide, reference compound], in series [1], the inhibition at 10 µM came out at 54.8%. Moreover, the “mode of inhibition of BChE” value in series [1] (results not shown) is given as “competitive inhibitor”.

One may read the IC50 as the concentration that inhibits the measured activity by half. As for `COc1ccc(/C=C/C(=O)c2ccc3c(c2O)C=CC(C)(C)O3)cc1` [Compound 5, 4-methoxylonchocarpin], the IC50 at 3 days is 20.2 µM in series [2]; above 30 µM in series [4]; 26.2 µM in series [5]; 25.4 µM in series [6]; 23.7 µM in series [7]. In addition, the inhibition at 10 µM was found to be 36.1% in series [3], 49.9% in series [8] and 8.7% in series [1] (at concentration of 10 µM).

In the case of `O=C1c2ccc(O)cc2C(=O)c2c(O)ccc(O)c21` [Compound 3, 1,4,6-trihydroxyanthracene-9,10-dione], the IC50 at 3 days in series [2], in series [4], in series [5], in series [6] and in series [7] was above 30 µM throughout. Half-maximal inhibition in series [3] (IC50) required 164 ± 83 µM. The inhibition at 10 µM in series [3] was found to be 80.4%.

Consider `COC(=O)C(Cc1ccc2c(c1OC)C(=O)c1cccc(OC)c1C2=O)C(=O)OC` [Compound 2, dimethyl 2-((1,5-dimethoxy-9,10-dioxo-9,10-dihydroanthracen-2-yl)methyl)malonate], for which the IC50 at 3 days in series [2], in series [4], in series [5], in series [6] and in series [7] was above 30 µM throughout. In series [3], this compound gave an inhibition at 10 µM of 13.4%.

One may read the Ki as a dissociation constant, usually derived from enzyme kinetics or from competition with a known ligand. High values mean a looser hold on the target, low ones a stronger hold on the target. Take `CC1(C)C=Cc2c(ccc(C(=O)/C=C/c3ccc(OCc4ccccc4)cc3)c2O)O1` [Compound 1, (E)-3-(4-(benzyloxy)phenyl)-1-(5-hydroxy-2,2-dimethyl-2H-chromen-6-yl)prop-2-en-1-one]: the IC50 at 3 days in series [2], in series [4], in series [5], in series [6] and in series [7] was above 30 µM throughout. Further, the “mode of inhibition of AChE” value in series [8] is listed as “mixed-mode type inhibitor”. For the same compound, the “AChE Ki'” value in series [8] (setting [9]) was determined as 3.54 ± 0.24 µM. Also, the Ki was found to be 3.54 µM in series [8] (setting [9]); 5.39 ± 0.51 µM in series [8] (from Lineweaver–Burk, Dixon and Cornish–Bowden plots). Further, the inhibition at 10 µM in series [8] came to 97.4%; in series [1] (at concentration of 10 µM), 27.3%.
